Measured values from patent US20090143279A1 (priority 2007, published 2009).
Where two headings read alike, the source gives them in different places.

Columns and labels:
[1] = tested on: cellular dehydrogenase activity; details: for MTT (composite Z-score): normalized score vs mock-treated (DMSO) wells
OXPHOS gene expression = assay type: cell-based, mouse; details: for GE-HTS (composite Z-score): normalized score vs mock-treated (DMSO) wells
C2C12 myotubes = details: for Viability (composite Z-score): normalized score vs mock-treated (DMSO) wells
cytochrome c = assay type: cell-based, mouse; details: for cyt c (composite Z-score): normalized score vs mock-treated (DMSO) wells
[2] = tested on: mitochondrial membrane potential; assay type: cell-based, mouse; details: for ΔΨm (composite Z-score): normalized score vs mock-treated (DMSO) wells
mtOXPHOS transcripts = assay type: cell-based, mouse; details: for mitoOX (composite Z-score): normalized score vs mock-treated (DMSO) wells
reactive oxygen species = assay type: cell-based, mouse; details: for ROS (composite Z-score): normalized score vs mock-treated (DMSO) wells
nuOXPHOS transcripts = assay type: cell-based, mouse; details: for nucOX (composite Z-score): normalized score vs mock-treated (DMSO) wells
[3] = composite Z-score vs DMSO, Conc 20 μM
[4] = composite Z-score vs mock-treated (DMSO) wells, Conc 20 μM
[5] = normalized composite Z-score vs mock-treated (DMSO) wells, Conc 20 μM
[6] = Table 7, C2C12 myotubes, 48 h, composite Z-score
[7] = composite Z-score vs DMSO wells, Conc 20 μM
[8] = composite Z-score vs mock-treated (DMSO) wells, concentration of each compound in μM
[9] = composite Z-score vs DMSO, Conc 10.62 μM

Row | Structure (SMILES) | MTT [1, 3] | GE-HTS (OXPHOS gene expression; [3]) | Viability (C2C12 myotubes; [3]) | cyt c (cytochrome c; [3]) | ΔΨm [2, 3] | mitoOX (mtOXPHOS transcripts; [3]) | ROS (reactive oxygen species; [3]) | nucOX (nuOXPHOS transcripts; [3]) | MTT [1, 4] | GE-HTS (OXPHOS gene expression; [4]) | Viability (C2C12 myotubes; [4]) | cyt c (cytochrome c; [4]) | ΔΨm [2, 4] | mitoOX (mtOXPHOS transcripts; [4]) | ROS (reactive oxygen species; [4]) | nucOX (nuOXPHOS transcripts; [4]) | also measured
1 | COc1cc2c(cc1-c1coc3c4c(c(OC)cc3c1=O)OC(C)(C)C=C4)OCO2 [ichthynone, reference compound] |  |  |  |  |  |  |  |  |  |  |  |  |  |  |  |  | MTT (composite Z-score) ([1]; Conc 20 μM): −0.681; GE-HTS (composite Z-score) (OXPHOS gene expression; Conc 20 μM): −0.217; Viability (composite Z-score) (C2C12 myotubes; Conc 20 μM): 0.234; cyt c (composite Z-score) (cytochrome c; Conc 20 μM): 0.001; ΔΨm (composite Z-score) ([2]; Conc 20 μM): −0.325; mitoOX (composite Z-score) (mtOXPHOS transcripts; Conc 20 μM): −0.466; ROS (composite Z-score) (reactive oxygen species; Conc 20 μM): 1.842; nucOX (composite Z-score) (nuOXPHOS transcripts; Conc 20 μM): −0.088
2 | O=[N+]([O-])NC1=NCCN1Cc1ccc(Cl)nc1 [imidacloprid] | −0.893 | −0.294 | −0.121 | 0.607 | −0.019 | −0.368 | 0.075 | −0.214 |  |  |  |  |  |  |  |  | 
3 | COc1c(O)cc(O)cc1O [iretol] |  |  |  |  |  |  |  |  | −0.086 | −0.881 | −0.552 | 0.347 | −0.404 | −1.366 | −0.393 | −0.583 | 
4 | COc1cc(-c2coc3cc(O[C@@H]4O[C@H](CO)[C@@H](O)[C@H](O)[C@H]4O)c(OC)c(O)c3c2=O)cc(O)c1OC [iridin] |  |  |  |  |  |  |  |  | −1.958 | −0.755 | −0.441 | −0.474 | 0.076 | −0.990 | 0.927 | −0.602 | 
5 | COc1cc(-c2coc3cc(OC)c(OC)c(OC)c3c2=O)cc(OC)c1OC [irigenin trimethyl ether] |  |  |  |  |  |  |  |  | −0.808 | −0.792 | −0.060 | 0.129 | −0.174 | −0.699 | −0.074 | −0.790 | 
6 | COc1cc(-c2coc3cc(OCc4ccccc4)c(OC)c(O)c3c2=O)cc(O)c1OC [irigenin, 7-benzyl ether] |  |  |  |  |  |  |  |  | −1.179 | −1.362 | −0.334 | −0.617 | 0.948 | −1.100 | 1.548 | −1.386 | 
7 | COc1cc(-c2coc3cc(OCc4ccccc4)c(OC)c(O)c3c2=O)cc(OCc2ccccc2)c1OC [irigenin, dibenzyl ether] | −0.793 | −0.325 | −1.724 | 0.012 | 0.178 | −0.602 | 0.088 | −0.163 |  |  |  |  |  |  |  |  | 
8 | O=c1c(-c2cc(O)c(O)c(O)c2)coc2cc(O)c(O)c(O)c12 [irigenol] | −0.810 | −1.274 | 0.249 | 0.410 | −0.374 | −1.938 | −1.001 | −0.838 |  |  |  |  |  |  |  |  | 
9 | CC(=O)Oc1cc(-c2coc3cc(OC(C)=O)c(OC(C)=O)c(OC(C)=O)c3c2=O)cc(OC(C)=O)c1OC(C)=O [iriginol hexaaceatate] |  |  |  |  |  |  |  |  | −0.565 | 0.928 | −0.291 | −0.315 | −0.204 | 0.938 | 0.815 | 0.859 | 
10 | COc1cc2occc2c2oc(=O)ccc12 [isobergaptene] |  |  |  |  |  |  |  |  | −1.025 | 0.514 | 0.375 | 0.486 | −0.112 | 0.715 | 1.329 | 0.338 | 
11 | COc1ccc2c(c1O)-c1c(OC)c(OC)cc3c1[C@H](C2)N(C)CC3 [isocorydine] |  |  |  |  |  |  |  |  |  |  |  |  |  |  |  |  | MTT (composite Z-score) ([1]; Conc 11.72 μM): −1.041; MTT (composite Z-score) ([1]; Conc 20 μM): −1.215; GE-HTS (composite Z-score) (OXPHOS gene expression; Conc 11.72 μM): 0.084; GE-HTS (composite Z-score) (OXPHOS gene expression; Conc 20 μM): −0.462; Viability (composite Z-score) (C2C12 myotubes; Conc 11.72 μM): −1.678; Viability (composite Z-score) (C2C12 myotubes; Conc 20 μM): 1.230; cyt c (composite Z-score) (cytochrome c; Conc 11.72 μM): 0.632; cyt c (composite Z-score) (cytochrome c; Conc 20 μM): 0.355; ΔΨm (composite Z-score) ([2]; Conc 11.72 μM): −1.052; ΔΨm (composite Z-score) ([2]; Conc 20 μM): −0.017; mitoOX (composite Z-score) (mtOXPHOS transcripts; Conc 11.72 μM): −0.664; mitoOX (composite Z-score) (mtOXPHOS transcripts; Conc 20 μM): −0.322; ROS (composite Z-score) (reactive oxygen species; Conc 11.72 μM): 1.214; ROS (composite Z-score) (reactive oxygen species; Conc 20 μM): −0.096; nucOX (composite Z-score) (nuOXPHOS transcripts; Conc 11.72 μM): 0.451; nucOX (composite Z-score) (nuOXPHOS transcripts; Conc 20 μM): −0.463
12 | Cc1cc(=O)c2c(O)cc(O)c(C)c2o1 [isoeugenitol] |  |  |  |  |  |  |  |  | −0.500 | −0.717 | 0.377 | 0.662 | 0.369 | −0.680 | 1.129 | −0.647 | 
13 | COc1ccc(-c2cc(=O)c3c(O)cc(O)c(-c4cc(-c5cc(=O)c6c(O)cc(O)cc6o5)ccc4OC)c3o2)cc1 [isoginkgetin] |  |  |  |  |  |  |  |  |  |  |  |  |  |  |  |  | MTT [1, 5]: −1.024; GE-HTS (OXPHOS gene expression; [5]): −0.589; Viability (C2C12 myotubes; [5]): 2.182; cyt c (cytochrome c; [5]): −0.400; ΔΨm [2, 5]: −4.387; mitoOX (mtOXPHOS transcripts; [5]): −1.087; ROS (reactive oxygen species; [5]): 1.106; nucOX (nuOXPHOS transcripts; [5]): −0.318
14 | C=C1CCC2C(CC2(C)C)C(=O)CCC1O (stereo not shown) [isokobusone] | −0.507 | −0.848 | −0.090 | 0.480 | −0.283 | −0.713 | −0.201 | −0.813 |  |  |  |  |  |  |  |  | 
15 | COc1cc(O)ccc1C(C)=O [isopeonol] | −0.831 | −0.109 | −1.180 | 0.734 | 0.271 | −0.635 | −0.219 | 0.134 |  |  |  |  |  |  |  |  | 
16 | COc1cc2c(cc1OC)[C@@H]1C(=O)c3ccc4oc(C(C)C)cc4c3O[C@@H]1CO2 [isorotenone, reference compound] |  |  |  |  |  |  |  |  |  |  |  |  |  |  |  |  | MTT [1, 5]: −4.373; GE-HTS (OXPHOS gene expression; [5]): −3.751; Viability (C2C12 myotubes; [5]): −1.954; cyt c (cytochrome c; [5]): −3.397; ΔΨm [2, 5]: −1.329; mito-OXPHOS Z (mtOXPHOS transcripts; [6]): −4.57; mitoOX (mtOXPHOS transcripts; [5]): −4.571; ROS (reactive oxygen species; [5]): −0.782; nucOXPHOS Z (nuOXPHOS transcripts; [6]): −3.02; nucOX (nuOXPHOS transcripts; [5]): −3.017
17 | CC=Cc1ccc2c(c1)OCO2 [isosafrole] |  |  |  |  |  |  |  |  | −0.913 | −1.283 | −0.798 | 0.462 | −1.060 | −1.917 | 0.397 | −0.860 | 
18 | COc1ccc(-c2coc3c(OC)c(OC)cc(OC)c3c2=O)cc1 [isotectorigenin trimethyl ether] |  |  |  |  |  |  |  |  | −1.465 | 0.437 | 0.976 | 0.640 | 0.413 | 0.418 | 0.359 | 0.426 | 
19 | COc1cc(O)c2c(=O)c(-c3ccc(O)cc3)coc2c1OC [isotectorigenin, 7-methyl ether] |  |  |  |  |  |  |  |  |  |  |  |  |  |  |  |  | MTT (composite Z-score) ([1]; Conc 20 μM): −1.606; GE-HTS (composite Z-score) (OXPHOS gene expression; Conc 20 μM): −0.592; Viability (composite Z-score) (C2C12 myotubes; Conc 20 μM): 0.633; cyt c (composite Z-score) (cytochrome c; Conc 20 μM): −0.477; ΔΨm (composite Z-score) ([2]; Conc 20 μM): 0.574; mitoOX (composite Z-score) (mtOXPHOS transcripts; Conc 20 μM): −0.360; ROS (composite Z-score) (reactive oxygen species; Conc 20 μM): 0.644; nucOX (composite Z-score) (nuOXPHOS transcripts; Conc 20 μM): −0.674
20 | Cc1cc(NC(=O)C2=C(O)c3ccccc3S(=O)(=O)N2C)no1 [isoxicam] |  |  |  |  |  |  |  |  |  |  |  |  |  |  |  |  | MTT [1, 7]: −0.152; GE-HTS (OXPHOS gene expression; [7]): −0.423; Viability (C2C12 myotubes; [7]): 0.010; cyt c (cytochrome c): 0.177; cyt c (cytochrome c; [7]): −0.169; ΔΨm [2, 7]: −1.091; mitoOX (mtOXPHOS transcripts; [7]): −0.770; ROS (reactive oxygen species; [7]): 0.030; nucOX (nuOXPHOS transcripts; [7]): −0.221
21 | CC(COc1ccccc1)NC(C)C(O)c1ccc(O)cc1 (stereo not shown) [isoxsuprine] | −1.776 | −0.050 | −0.141 | 0.295 | −1.246 | 0.463 | 1.375 | −0.267 |  |  |  |  |  |  |  |  | cyt c (cytochrome c; [8]): −0.148
22 | O=C(O)/C=C/C=C/c1ccccc1 [juarezic acid] | −0.449 | −0.147 | −0.106 | −0.113 | −0.821 | −0.650 | 0.345 | 0.108 |  |  |  |  |  |  |  |  | 
23 | NC[C@H]1O[C@H](O[C@H]2[C@H](O)[C@@H](O[C@H]3O[C@H](CO)[C@@H](O)[C@H](N)[C@H]3O)[C@H](N)C[C@@H]2N)[C@H](O)[C@@H](O)[C@@H]1O [kanamycin A] |  |  |  |  |  |  |  |  |  |  |  |  |  |  |  |  | MTT [1, 8]: −1.149; GE-HTS (OXPHOS gene expression; [8]): −0.270; Viability (C2C12 myotubes; [8]): −1.015; cyt c (cytochrome c; [8]): −0.131; ΔΨm [2, 8]: −0.812; mitoOX (mtOXPHOS transcripts; [8]): −0.323; ROS (reactive oxygen species; [8]): 1.383; nucOX (nuOXPHOS transcripts; [8]): −0.218
24 | O=C(c1ccccc1)c1ccc2n1CCC2C(=O)O (stereo not shown) [ketorolac] | −0.053 | −0.344 | −0.363 | −0.707 | −0.825 | −0.033 | 0.939 | −0.468 |  |  |  |  |  |  |  |  | MTT [1, 9]: −0.563; GE-HTS (OXPHOS gene expression; [9]): 0.096; Viability (C2C12 myotubes; [9]): −0.773; cyt c (cytochrome c; [9]): 0.315; ΔΨm [2, 9]: 0.136; mitoOX (mtOXPHOS transcripts; [9]): 0.412; ROS (reactive oxygen species; [9]): 0.482; nucOX (nuOXPHOS transcripts; [9]): −0.072
25 | CCC(=O)OC1[C@@H]2CC3=C4CC(=O)O[C@@H](c5ccoc5)[C@]4(C)CCC3[C@@](C)(C2=O)[C@@H](CC(=O)OC)C1(C)C (stereo partly shown) [khayasin C] |  |  |  |  |  |  |  |  | −1.678 | 0.442 | −1.021 | −0.654 | −0.095 | 1.232 | −0.078 | 0.033 | 
